≈ marks a conversion by molar mass, not a printed value.

The conditions of the data set: buffer; pH 7.4; 200.0 µM.
Take `CC(C)(C)Nc1nc(Cl)nc(NC2CCCCC2)n1`: the kinetic solubility – broadly, solubility judged after dilution from a stock solution rather than from solid – came out at 0.2 µg/mL (≈ 0.705 µM).

In turn, `C=CCn1c(C)cc(-c2csc(NC)n2)c1C` displayed a solubility (kinetic) of 8.5 µg/mL (≈ 34.4 µM). Then `COc1ccc(S(=O)(=O)NC(C)C(=O)N2CCCC2)cc1Cl` (configuration not stated), with 47 µg/mL (≈ 136 µM); and `Cc1nc([N+](=O)[O-])cn1Cc1cccc2ccccc12`, with 2.5 µg/mL (≈ 9.35 µM); and `CC(=O)c1ccc(OCCCC(=O)NC2CCCCC2C)cc1` (configuration not stated), with 25.8 µg/mL (≈ 81.3 µM). `O=C(CSc1ccc(-c2ccc(F)cc2)nn1)NCC1CCCO1` (configuration not stated) came in with a kinetic solubility above 52.1 µg/mL. Next, `COc1ccc(C(=O)Nc2cc3c4c(c2)CC(=O)N4CCC3)cc1`: above 48.4 µg/mL. Turning to `CN(CC(=O)Nc1ccc(Cl)cc1)C1CCCCC1`, the solubility (kinetic) came to 36 µg/mL (≈ 128 µM).

Consider `Cc1cccc(N2CN=c3s/c(=C\c4ccccn4)c(=O)n3C2)c1`, for which the kinetic solubility came out at 5.3 µg/mL (≈ 15.8 µM). Then `O=C(Nc1cc(Cl)ccc1N1CCOCC1)c1cccnc1Cl`, with 49.7 µg/mL (≈ 141 µM); and `COC(=O)c1ccc(NC(=O)Nc2ccccc2C)cc1`, with 4.3 µg/mL (≈ 15.1 µM). Then `O=C1CNC(=O)N1`, with above 15 µg/mL; and `NS(=O)(=O)c1ccc(CNC(=O)C(c2ccccc2)c2ccccc2)cc1`, with 56.1 µg/mL (≈ 147 µM). Next, `COc1cc(C(=O)O/N=C2\C=CC(=O)C(C)=C2)cc(OC)c1OC`: above 49.7 µg/mL. Consider `Cc1cc2sc3nc(=O)n(-c4ccccc4)c(=O)n3c2cc1C`, for which the solubility (kinetic) stood at 5.8 µg/mL (≈ 17.9 µM). Then `COC(=O)c1ccccc1C(=O)N1CC(O)CO1` (configuration not stated), with above 37.7 µg/mL; and `Nc1ncc([N+](=O)[O-])cc1S(=O)(=O)c1ccccc1`, with 3.8 µg/mL (≈ 13.6 µM).

With `Cc1cccc(NC(=O)c2ccc3c(c2)OCCO3)c1C`, the solubility (kinetic) was 22.1 µg/mL (≈ 78 µM).

In turn, `CCCc1nc(-c2cc3ccccc3[nH]c2=O)no1` displayed a solubility (kinetic) above 38.3 µg/mL. Turning to `CSc1ncc(C(C)=O)c(C)n1`, the solubility (kinetic) is above 27.3 µg/mL. Next, `COc1ccc(OCC(O)CNC(=O)c2sccc2Cl)cc1` (configuration not stated): 46 µg/mL (≈ 135 µM).

`O=C(COC(=O)/C=C/c1ccccc1[N+](=O)[O-])NC(=O)NC1CCCC1` came in with a kinetic solubility of 7.7 µg/mL (≈ 21.3 µM). Next, `Cc1cc(C)c2c(N)c(C(=O)N3CCc4ccccc4C3)sc2n1`: 5.5 µg/mL (≈ 16.3 µM). Next, `CCOC(=O)c1sc(=S)n(C)c1NC(=O)c1ccc(C(C)(C)C)cc1`: 3.4 µg/mL (≈ 8.98 µM). Then `Cc1cc(C)cc(NC(=S)Nc2cccc3ccccc23)c1`, with 1.1 µg/mL (≈ 3.59 µM); and `O=C(CN1C(=O)NC2(CCCC2)C1=O)NC(c1ccccc1)c1ccccc1`, with 14.5 µg/mL (≈ 38.4 µM); and `CN(C)S(=O)(=O)NCCNc1ccc(C(F)(F)F)cc1[N+](=O)[O-]`, with 18.2 µg/mL (≈ 51.1 µM). Consider `CCOC(=O)c1sc(NC(=O)c2ccc3nc[nH]c3c2)nc1C`, for which the kinetic solubility was 3.7 µg/mL (≈ 11.2 µM). Then `CCCC(=O)NC(=S)Nc1cccc(Cl)c1N1CCCC1`, with 0.5 µg/mL (≈ 1.53 µM); and `O=c1[nH]c(=O)n(Cc2ccco2)c(O)c1C=NCCN1CCNCC1`, with above 52.1 µg/mL. Next, `O=C(C[n+]1ccc(/C=N/O)cc1)NCc1ccccc1.[Cl-]`: 41.3 µg/mL; `O=C(CNC(=O)c1ccco1)Nc1ccc(F)cc1`: 37 µg/mL (≈ 141 µM); `O=c1c2ccccc2nc(-c2ccccc2Cl)n1-c1ccc(O)cc1`: above 52.3 µg/mL. As for `Cc1nc(SCC(=O)N2CCOCC2)c2c(=O)n(C)c(=O)n(CC(C)C)c2n1`, the kinetic solubility was determined as 47.8 µg/mL (≈ 117 µM). For `CCOC(=O)c1cnc(SCC(=O)NNC(=O)c2ccco2)nc1N`, the kinetic solubility was above 54.8 µg/mL. In turn, `Cc1cc(C)cc(NS(=O)(=O)c2ccc3[nH]c(=O)ccc3c2)c1` displayed a solubility (kinetic) of 1.5 µg/mL (≈ 4.57 µM). Then `NC(=O)c1nc(-c2ccccc2)c(-c2ccccc2)[nH]c1=O`, with above 43.7 µg/mL. Next, `O=[N+]([O-])c1cc([N+](=O)[O-])c2nonc2c1Nc1ccc(O)cc1`: above 47.6 µg/mL. Next, `C=CCN(C(=O)c1ccccc1)C1CCS(=O)(=O)C1` (configuration not stated): 37.4 µg/mL (≈ 134 µM); `COc1cccc(N/C=C/C(=O)c2ccc(OC)c(OC)c2)c1`: 2.3 µg/mL (≈ 7.34 µM); `Cc1cccc(Oc2nc(-c3ccncc3)nc3ccccc23)c1`: below 0.2 µg/mL. Turning to `CN(C(=O)C(Cl)Cl)c1ccc(OC(=O)c2ccco2)cc1`, the kinetic solubility is above 49.2 µg/mL. Then `S=C(NCc1ccco1)Nc1cccc(Cl)c1Cl`, with 11.3 µg/mL (≈ 37.5 µM); and `COc1ccccc1CNC(=O)C(=O)Nc1nccs1`, with 6 µg/mL (≈ 20.6 µM). Next, `Cc1cccn2c(=O)c(C=O)c(N3CCN(C)CC3)nc12`: above 42.9 µg/mL; `N#C/C(=C\C=C\c1ccccc1[N+](=O)[O-])C(=O)NCc1ccccc1`: 3.7 µg/mL (≈ 11.1 µM); `CCC(=O)Nc1ccc(OCc2nc3ccccc3s2)cc1`: 2.3 µg/mL (≈ 7.36 µM). `CC1CCN(S(=O)(=O)c2ccc([N+](=O)[O-])cc2)CC1`: the solubility (kinetic) worked out at 3.2 µg/mL (≈ 11.3 µM).

The molecule `CC(=O)CSc1ccc(-c2nc3ccccc3[nH]2)cn1` displayed a solubility (kinetic) above 42.5 µg/mL. Then `CNC(=O)Nc1ccc(C2SCCS2)cc1`, with 19.9 µg/mL (≈ 78.2 µM); and `CCN(CC)CCNC(=O)Cn1ncc2ccccc2c1=O`, with above 45.4 µg/mL. Next, `O=c1c2ccccc2nc(/C=C/c2cccnc2)n1CCc1ccccc1`: 22.1 µg/mL (≈ 62.5 µM).

These data come from PubChem BioAssay AID1996.
